Results reported in patent US20240382417A1, “Compositions Comprising Guaifenesin and Eriodictyol” (SYMRISE AG, priority 2018, published 2024).
Marks after values point to notes of the source that are not given here.

Columns and labels:
HGT-1 cells = experiment: guaifenesin-induced acid (proton) secretion in HGT-1 cells; format: cell-based, human; settings: for proton secretory activity (log2 transformed ratio of treated vs. untreated cells): mean ± SEM
Description: Human gastric tumour cell line 1 (HGT-1; Laboisse C. L.; Augeron C.; Couturier-Turpin M. H.; Gespach C.; Cheret A. M.; Potet F., Characterization of a newly established human gastric cancer cell line HGT-1 bearing histamine H2-receptors, Canc. Res., 1982, 42, 1541 to 1548) is a suitable screening tool for detecting the interaction of bitter agents and bitter modulating substances (Liszt, K. I.; Hans, J.; Ley, J. P.; Kock, E.; Somoza, V., Characterization of bitter compounds via modulation of proton secretion in human gastric parietal cells in culture, J. Agric. Food Chem., 2018, 66 (10), 2295-2300.). Therefore, the effect of eriodictyol on guaifenesin-induced acid secretion in the HGT-1 cell line was determined to predict the modulation of guaifenesin-induced bitterness by eriodictyol. To this aim, HGT-1 cells were cultured under standard conditions and passaged at ca. 80% confluence. […] HGT-1 cells were pre-loaded with (acetyloxy) methyl-3-(acetyloxy)-10-(dimethylamino)-3′-oxo-spiro[7H-benzo [c]xanthene-7,1′(3H)-isobenzofuran]-ar′-carboxylate and incubated in 130 mM NaCl 130, 4.7 mM KCl, 1.3 mM CaCl2, 1.2 mM MgSO4, 1.2 mM KH2PO4, 11.7 mM glucose, 10 mM HEPES 10, 20 μM 4,4′-Diisothiocyanatostilbene-2,2′-disulfonic acid disodium and 20 μM 5-(N-Ethyl-N-isopropyl) amiloride at pH 7.4. Fluorescence recordings were performed with an excitation wavelength of 488 nm and monitoring the emission wavelengths of 580 nm and 640 nm, respectively, each with a 20 nm bandwidth. […]
The data in Table 1 are presented as mean±SEM derived from 7 biological replicates and 14 to 21 technical replicates. Outliers were identified using the Nalimov test, statistical significance was tested one-way ANOVA with Tukey's range test for multiple comparisons and Bonferroni correction, establishing the threshold for significance at p<0.0071. Accordingly, data are marked with * (p<0.0071), ** (p<0.0014) or *** (p<0.00014). Control: untreated cells
The data in Table 2 are presented as mean±SEM derived from 7 biological replicates and 14 to 21 technical replicates. Outliers were identified using the Nalimov test, statistical significance was tested one-way ANOVA with Tukey's range test for multiple comparisons and Bonferroni correction, establishing the threshold for significance at p<0.0071. Accordingly, data are marked with * (p<0.0071), ** (p<0.0014) or *** (p<0.00014). Control: untreated cells

guaifenesin bitterness = settings: 200 ppm (0.2 mg/ml) HED against 13 mg/ml guaifenesin; cited from earlier work
trained sensory panel = experiment: sensory panel test of guaifenesin-induced bitterness perception (sip and spit, randomized comparison); format: in vivo, human; settings: guaifenesin used in combination with eriodictyol; refers to Table 3
Description: To verify the effect of eriodictyol on guaifenesin-induced bitterness perception, an aqueous solution of 13 g/l guaifenesin (1) was tested against an aqueous solution containing 13 g/l guaifenesin and 20 mg/l eriodictyol (2) or 100 mg/l homoeriodictyol (3). The test was conducted as a randomized comparison test in a trained sensory panel (n=20 to 30) via a sip and spit procedure. The panelists tasted both solutions in a blinded fashion and rated bitterness on a scale of 0 to 100.

COc1cc([C@@H]2CC(=O)c3c(O)cc(O)cc3O2)ccc1O (stereo in doubt) [homoeriodictyol, (2S)-/(2R)-5,7-Dihydroxy-2-(4-hydroxy-3-methoxyphenyl)-4-chromanone]
proton secretory activity (log2 transformed ratio of treated vs. untreated cells) (HGT-1 cells; 10 mM guaifenesin ± 3 μM homoeriodictyol, timepoint 0 min): −0.2514 ± 0.0260 | proton secretory activity (log2 transformed ratio of treated vs. untreated cells) (HGT-1 cells; 10 mM guaifenesin ± 3 μM homoeriodictyol, timepoint 5 min): −0.1923 ± 0.0304 | proton secretory activity (log2 transformed ratio of treated vs. untreated cells) (HGT-1 cells; 10 mM guaifenesin ± 3 μM homoeriodictyol, timepoint 10 min): −0.2547 ± 0.0320 | proton secretory activity (log2 transformed ratio of treated vs. untreated cells) (HGT-1 cells; 10 mM guaifenesin ± 3 μM homoeriodictyol, timepoint 15 min): −0.2538 ± 0.0317 | proton secretory activity (log2 transformed ratio of treated vs. untreated cells) (HGT-1 cells; 10 mM guaifenesin ± 3 μM homoeriodictyol, timepoint 20 min): −0.2677 ± 0.0264 | proton secretory activity (log2 transformed ratio of treated vs. untreated cells) (HGT-1 cells; 10 mM guaifenesin ± 3 μM homoeriodictyol, timepoint 25 min): −0.2472 ± 0.0296 | proton secretory activity (log2 transformed ratio of treated vs. untreated cells) (HGT-1 cells; 10 mM guaifenesin ± 3 μM homoeriodictyol, timepoint 30 min): −0.2493 ± 0.0300 | proton secretory activity (log2 transformed ratio of treated vs. untreated cells) (HGT-1 cells; 10 mM guaifenesin ± 30 μM homoeriodictyol, timepoint 0 min): −0.2845 ± 0.0235 | proton secretory activity (log2 transformed ratio of treated vs. untreated cells) (HGT-1 cells; 10 mM guaifenesin ± 30 μM homoeriodictyol, timepoint 5 min): −0.1702 ± 0.0265 | proton secretory activity (log2 transformed ratio of treated vs. untreated cells) (HGT-1 cells; 10 mM guaifenesin ± 30 μM homoeriodictyol, timepoint 10 min): −0.1272 ± 0.0263* | proton secretory activity (log2 transformed ratio of treated vs. untreated cells) (HGT-1 cells; 10 mM guaifenesin ± 30 μM homoeriodictyol, timepoint 15 min): −0.1934 ± 0.0259 | proton secretory activity (log2 transformed ratio of treated vs. untreated cells) (HGT-1 cells; 10 mM guaifenesin ± 30 μM homoeriodictyol, timepoint 20 min): −0.2282 ± 0.0260 | proton secretory activity (log2 transformed ratio of treated vs. untreated cells) (HGT-1 cells; 10 mM guaifenesin ± 30 μM homoeriodictyol, timepoint 25 min): −0.1601 ± 0.0206 | proton secretory activity (log2 transformed ratio of treated vs. untreated cells) (HGT-1 cells; 10 mM guaifenesin ± 30 μM homoeriodictyol, timepoint 30 min): −0.2187 ± 0.0244 | inhibition of proton secretion compared with eriodictyol (HGT-1 cells; co-incubation of 10 mM guaifenesin with 30 μM homoeriodictyol): did not exhibit such a pronounced inhibition | change in proton secretion compared to 10 mM guaifenesin alone (HGT-1 cells; co-incubation of 10 mM guaifenesin with 30 μM homoeriodictyol, only the time point at 10 min (p<0.0071)): significant decrease | reduction in guaifenesin bitterness (guaifenesin bitterness): about 40%

O=C1CC(c2ccc(O)c(O)c2)Oc2cc(O)cc(O)c21 [eriodictyol, (2S)-/(2R)-2-(3,4-dihydroxyphenyl)-5,7-dihydroxy-4-chromanone]
proton secretory activity (log2 transformed ratio of treated vs. untreated cells) (HGT-1 cells; 10 mM guaifenesin + 3 μM eriodictyol, timepoint 0 min): −0.3389 ± 0.0274 | proton secretory activity (log2 transformed ratio of treated vs. untreated cells) (HGT-1 cells; 10 mM guaifenesin + 3 μM eriodictyol, timepoint 5 min): −0.3351 ± 0.0246 | proton secretory activity (log2 transformed ratio of treated vs. untreated cells) (HGT-1 cells; 10 mM guaifenesin + 3 μM eriodictyol, timepoint 10 min): −0.2874 ± 0.0241 | proton secretory activity (log2 transformed ratio of treated vs. untreated cells) (HGT-1 cells; 10 mM guaifenesin + 3 μM eriodictyol, timepoint 15 min): −0.2595 ± 0.0264 | proton secretory activity (log2 transformed ratio of treated vs. untreated cells) (HGT-1 cells; 10 mM guaifenesin + 3 μM eriodictyol, timepoint 20 min): −0.2622 ± 0.0286 | proton secretory activity (log2 transformed ratio of treated vs. untreated cells) (HGT-1 cells; 10 mM guaifenesin + 3 μM eriodictyol, timepoint 25 min): −0.3259 ± 0.0279 | proton secretory activity (log2 transformed ratio of treated vs. untreated cells) (HGT-1 cells; 10 mM guaifenesin + 3 μM eriodictyol, timepoint 30 min): −0.3237 ± 0.0296 | proton secretory activity (log2 transformed ratio of treated vs. untreated cells) (HGT-1 cells; 10 mM guaifenesin + 30 μM eriodictyol, timepoint 0 min): −0.2324 ± 0.0297 | proton secretory activity (log2 transformed ratio of treated vs. untreated cells) (HGT-1 cells; 10 mM guaifenesin + 30 μM eriodictyol, timepoint 5 min): −0.2396 ± 0.0252 | proton secretory activity (log2 transformed ratio of treated vs. untreated cells) (HGT-1 cells; 10 mM guaifenesin + 30 μM eriodictyol, timepoint 10 min): −0.1630 ± 0.0308*** | proton secretory activity (log2 transformed ratio of treated vs. untreated cells) (HGT-1 cells; 10 mM guaifenesin + 30 μM eriodictyol, timepoint 15 min): −0.1472 ± 0.0302** | proton secretory activity (log2 transformed ratio of treated vs. untreated cells) (HGT-1 cells; 10 mM guaifenesin + 30 μM eriodictyol, timepoint 20 min): −0.1496 ± 0.0269** | proton secretory activity (log2 transformed ratio of treated vs. untreated cells) (HGT-1 cells; 10 mM guaifenesin + 30 μM eriodictyol, timepoint 25 min): −0.1478 ± 0.0283*** | proton secretory activity (log2 transformed ratio of treated vs. untreated cells) (HGT-1 cells; 10 mM guaifenesin + 30 μM eriodictyol, timepoint 30 min): −0.1886 ± 0.0272* | change in proton secretory activity of HGT-1 cells compared to 10 mM guaifenesin alone (HGT-1 cells; co-incubation of 10 mM guaifenesin with 30 μM eriodictyol, from 10 min onwards): significant decrease | reduction of bitterness of guaifenesin (trained sensory panel): ≥ 35%

COc1ccccc1OCC(O)CO (centres unmarked) [guaifenesin, 3-(2-methoxyphenoxy-) 1,2-propanediol]
proton secretory activity (log2 transformed ratio of treated vs. untreated cells) (HGT-1 cells; 10 mM guaifenesin alone, Table 1, timepoint 0 min): −0.3130 ± 0.0306 | proton secretory activity (log2 transformed ratio of treated vs. untreated cells) (HGT-1 cells; 10 mM guaifenesin alone, Table 1, timepoint 5 min): −0.2720 ± 0.0225 | proton secretory activity (log2 transformed ratio of treated vs. untreated cells) (HGT-1 cells; 10 mM guaifenesin alone, Table 1, timepoint 10 min): −0.3283 ± 0.0253 | proton secretory activity (log2 transformed ratio of treated vs. untreated cells) (HGT-1 cells; 10 mM guaifenesin alone, Table 1, timepoint 15 min): −0.2945 ± 0.0277 | proton secretory activity (log2 transformed ratio of treated vs. untreated cells) (HGT-1 cells; 10 mM guaifenesin alone, Table 1, timepoint 20 min): −0.2885 ± 0.0266 | proton secretory activity (log2 transformed ratio of treated vs. untreated cells) (HGT-1 cells; 10 mM guaifenesin alone, Table 1, timepoint 25 min): −0.3135 ± 0.0260 | proton secretory activity (log2 transformed ratio of treated vs. untreated cells) (HGT-1 cells; 10 mM guaifenesin alone, Table 1, timepoint 30 min): −0.3241 ± 0.0280 | proton secretory activity (log2 transformed ratio of treated vs. untreated cells) (HGT-1 cells; 10 mM guaifenesin alone, Table 2, timepoint 0 min): −0.2712 ± 0.0190 | proton secretory activity (log2 transformed ratio of treated vs. untreated cells) (HGT-1 cells; 10 mM guaifenesin alone, Table 2, timepoint 5 min): −0.2170 ± 0.0217 | proton secretory activity (log2 transformed ratio of treated vs. untreated cells) (HGT-1 cells; 10 mM guaifenesin alone, Table 2, timepoint 10 min): −0.2543 ± 0.0268 | proton secretory activity (log2 transformed ratio of treated vs. untreated cells) (HGT-1 cells; 10 mM guaifenesin alone, Table 2, timepoint 15 min): −0.2518 ± 0.0274 | proton secretory activity (log2 transformed ratio of treated vs. untreated cells) (HGT-1 cells; 10 mM guaifenesin alone, Table 2, timepoint 20 min): −0.2081 ± 0.0243 | proton secretory activity (log2 transformed ratio of treated vs. untreated cells) (HGT-1 cells; 10 mM guaifenesin alone, Table 2, timepoint 25 min): −0.2454 ± 0.0265 | proton secretory activity (log2 transformed ratio of treated vs. untreated cells) (HGT-1 cells; 10 mM guaifenesin alone, Table 2, timepoint 30 min): −0.2730 ± 0.0241
